Data taken from patent US20250235448A1, “COMBINATION THERAPY FOR TREATING CANCER” (AstraZeneca AB, priority 2022, published 2025).
Where two headings read alike, the source gives them in different places.

Tests used:
LnCAP 95 = assay: Cell proliferation / viability assay (7 days after treatment), AC50 and HSA combination benefit; assay type: cell-based; details: LnCAP 95 (mCRPC) cells; monotherapy; mean of two independent experiments each in triplicate
Method: (§1) The following cell lines were originally obtained from ATCC:
(§2) Cell line identification was validated using the CellCheck assay (IDEXX Bioanalytics, Westbrook, ME, USA). All cell lines were validated free of virus Mycoplasma contamination using the MycoSEQ assay (Thermo Fisher Scientific, Waltham, MA, USA) or STAT-Myco assay (IDEXX Bioanalytics). All cell lines were grown RPMI-1640 growth media (Corning 17-105-CV) supplemented with 10% fetal bovine serum (FBS) or, when indicated, 10% charcoal stripped FBS (ThermoFisher Scientific, 12676029) and 2 mM glutamine.
(§3) Cells in 384-well or 96-well plates were dosed using an Echo 555 (LabCyte, San Jose, CA, USA) or using the HP D300e Digital Dispenser (HP Life Science Dispensing), respectively. Live cell count pre- and post-treatment (7 days after treatment) was determined using CellTiter-Glo as per manufacturer's instructions (Promega, Madison, WI, USA; G7570).
(§4) Cell viability was determined with the Sytox Green assay as described in Davies 2012 and the AC50 calculated. The HSA (Highest Single Agent) Synergy Score was calculated according to Bernenbaum 1989.

LnCAP = assay: as above; assay type: cell-based; details: Homo sapiens; LnCAP (mHSPC) cells; monotherapy; mean of two independent experiments each in triplicate
Method: as §1, §2, §3, §4

non-metastatic CRPC = details: patients with non-metastatic CRPC, ARAMIS trial; placebo 18.5 months; cited from earlier work
CWR22Pc-R1-AD1 = assay: Cell proliferation / viability assay (7 days after treatment), AC50 and HSA combination benefit; assay type: cell-based
Method: as §1
Cell line identification was validated using the CellCheck assay (IDEXX Bioanalytics, Westbrook, ME, USA). All cell lines were validated free of virus Mycoplasma contamination using the MycoSEQ assay (Thermo Fisher Scientific, Waltham, MA, USA) or STAT-Myco assay (IDEXX Bioanalytics).
Live cell count pre- and post-treatment (7 days after treatment) was determined using CellTiter-Glo as per manufacturer's instructions (Promega, Madison, WI, USA; G7570).

CYP3A4 = details: literature statement (Gibbons 2015, Dirix 2016); cited from earlier work

CC(O)c1cc(C(=O)N[C@@H](C)Cn2ccc(-c3ccc(C#N)c(Cl)c3)n2)n[nH]1 (stereo partly drawn) [Darolutamide, N—((S)-1-(3-(3-chloro-4-cyanophenyl)-1H-pyrazol-1-yl)propan-2-yl)-5-(1-hydroxyethyl)-1H-pyrazole-3-carboxamide]
AC50 (LnCAP 95): 17500 nM
AC50 (LnCAP): 3630 nM
metastasis free survival (non-metastatic CRPC): 40.4 months
AC50 (CWR22Pc-R1-AD1): 65.5 nM

O=C(c1cc(Cc2n[nH]c(=O)c3ccccc23)ccc1F)N1CCN(C(=O)C2CC2)CC1 [Olaparib]
CYP3A4 interaction (inducer / substrate) (CYP3A4): substrate of CYP3A4

CNC(=O)c1ccc(N2C(=S)N(c3ccc(C#N)c(C(F)(F)F)c3)C(=O)C2(C)C)cc1F [enzalutamide]
CYP3A4 interaction (inducer / substrate) (CYP3A4): strong CYP3A4 inducer

CCc1cc2ncc(CN3CCN(c4ccc(C(=O)NC)nc4)CC3)cc2[nH]c1=O [AZD5305, 5-{4-[(7-ethyl-6-oxo-5,6-dihydro-1,5-naphthyridin-3-yl)methyl]piperazin-1-yl}-N-methylpyridine-2-carboxamide]
AC50 (LnCAP 95): 700 nM
AC50 (LnCAP): 285 nM
AC50 (CWR22Pc-R1-AD1; CWR22Pc-R1-AD1 (mCRPC) cells, monotherapy, mean of two independent experiments each in triplicate, read-out: AC50): 5.66 nM
